Measurements taken from PubChem BioAssay (NCI).
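GI50 marks 50% less growth. TGI is the concentration that stops growth completely.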

Legend:
Experiment in all cases: DTP human tumour cell line panel, 384-well format
[1] = system: SF-295 CNS
[2] = system: SK-MEL-28 melanoma
[3] = system: MDA-MB-468 breast
[4] = system: HOP-62 NSCLC
[5] = system: MDA-MB-435 melanoma
[6] = system: SF-539 CNS
[7] = system: HCT-15 colon
[8] = system: HOP-92 NSCLC
[9] = system: UACC-62 melanoma
[10] = system: LOX IMVI melanoma
[11] = system: RXF 393 renal
[12] = system: COLO 205 colon
[13] = system: NCI-H322M lung
[14] = system: NCI-H226 lung
[15] = system: HCT-116 colon
[16] = system: MALME-3M melanoma
[17] = system: A498 renal
[18] = system: NCI-H23 lung
[19] = system: SF-268 CNS
[20] = system: DU-145 prostate
[21] = system: SK-MEL-5 melanoma
[22] = system: T-47D breast
[23] = system: SNB-19 CNS
[24] = system: OVCAR-3 ovarian
[25] = system: U251 glioblastoma
[26] = system: KM12 colon
[27] = system: HL-60(TB) leukemia
[28] = system: IGROV1 ovarian
[29] = system: OVCAR-8 ovarian
[30] = system: SR leukemia
[31] = system: HCC-2998 colon
[32] = system: HS 578T breast
[33] = system: OVCAR-5 ovarian
[34] = system: A549 NSCLC
[35] = system: TK-10 renal
[36] = system: NCI-H460 NSCLC
[37] = system: OVCAR-4 ovarian
[38] = system: HT29 colon
[39] = system: CAKI-1 renal
[40] = system: PC-3 prostate
[41] = system: MDA-MB-231 breast
[42] = system: SN12C renal
[43] = system: SK-OV-3 ovarian
[44] = system: MOLT-4 leukemia
[45] = system: MCF7 breast
[46] = system: NCI/ADR-RES ovarian
[47] = system: ACHN renal
[48] = system: M14 melanoma
[49] = system: BT-549 breast
[50] = system: UACC-257 melanoma
[51] = system: EKVX NSCLC
[52] = system: RPMI-8226 leukemia
[53] = system: NCI-H522 lung
[54] = system: SNB-75 CNS

Structure (SMILES): Cn1ncc(Cl)c1-c1cc(C(=O)N[C@H](CN)Cc2ccc(F)c(F)c2)oc1Cl
- GI50 [1]: 527 nM
- TGI [1]: 2300 nM
- GI50 [2]: 1140 nM
- TGI [2]: 2450 nM
- GI50 [3]: 71.9 nM
- TGI [3]: 1790 nM
- GI50 [4]: 3010 nM
- TGI [4]: 10900 nM
- GI50 [5]: 1820 nM
- TGI [5]: 6670 nM
- GI50 [6]: 79.4 nM
- TGI [6]: 1920 nM
- GI50 [7]: 702 nM
- TGI [7]: 13400 nM
- GI50 [8]: 2360 nM
- TGI [8]: 11200 nM
- GI50 [9]: 1060 nM
- TGI [9]: 2310 nM
- GI50 [10]: 1940 nM
- TGI [10]: 3950 nM
- GI50 [11]: 386 nM
- TGI [11]: 2180 nM
- GI50 [12]: 833 nM
- TGI [12]: 2710 nM
- GI50 [13]: 2340 nM
- TGI [13]: 13900 nM
- GI50 [14]: 2540 nM
- TGI [14]: 8160 nM
- GI50 [15]: 2330 nM
- TGI [15]: 10500 nM
- GI50 [16]: 1050 nM
- TGI [16]: 2240 nM
- GI50 [17]: 25.7 nM
- TGI [17]: 782 nM
- GI50 [18]: 2700 nM
- TGI [18]: 11100 nM
- GI50 [19]: 4700 nM
- TGI [19]: 16900 nM
- GI50 [20]: 3720 nM
- TGI [20]: 16400 nM
- GI50 [21]: 1010 nM
- TGI [21]: 2180 nM
- GI50 [22]: 137 nM
- TGI [22]: 5550 nM
- GI50 [23]: 1480 nM
- TGI [23]: 14900 nM
- GI50 [24]: 2170 nM
- TGI [24]: 14100 nM
- GI50 [25]: 1140 nM
- TGI [25]: 3970 nM
- GI50 [26]: 364 nM
- TGI [26]: 2820 nM
- GI50 [27]: 1260 nM
- TGI [27]: 2550 nM
- GI50 [28]: 23.1 nM
- TGI [28]: 178 nM
- GI50 [29]: 3310 nM
- TGI [29]: 15600 nM
- GI50 [30]: 517 nM
- TGI [30]: 1860 nM
- GI50 [31]: 772 nM
- TGI [31]: 2210 nM
- GI50 [32]: 711 nM
- TGI [32]: 2720 nM
- GI50 [33]: 1570 nM
- TGI [33]: 4560 nM
- GI50 [34]: 2660 nM
- TGI [34]: 13900 nM
- GI50 [35]: 569 nM
- TGI [35]: 2900 nM
- GI50 [36]: 87.6 nM
- TGI [36]: 2180 nM
- GI50 [37]: 6600 nM
- TGI [37]: 19100 nM
- GI50 [38]: 1030 nM
- TGI [38]: 7490 nM
- GI50 [39]: 2230 nM
- TGI [39]: 12100 nM
- GI50 [40]: 128 nM
- TGI [40]: 2160 nM
- GI50 [41]: 7040 nM
- TGI [41]: 19900 nM
- GI50 [42]: 1960 nM
- TGI [42]: 11100 nM
- GI50 [43]: 431 nM
- TGI [43]: 8200 nM
- GI50 [44]: 60 nM
- TGI [44]: 347 nM
- GI50 [45]: 130 nM
- TGI [45]: 1800 nM
- GI50 [46]: 4100 nM
- TGI [46]: 16300 nM
- GI50 [47]: 2770 nM
- TGI [47]: 14900 nM
- GI50 [48]: 1490 nM
- TGI [48]: 2910 nM
- GI50 [49]: 586 nM
- TGI [49]: 2160 nM
- GI50 [50]: 1050 nM
- TGI [50]: 2240 nM
- GI50 [51]: 2070 nM
- TGI [51]: 11000 nM
- GI50 [52]: 1540 nM
- TGI [52]: 2990 nM
- GI50 [53]: 2240 nM
- TGI [53]: 7940 nM
- GI50 [54]: 211 nM
- TGI [54]: 2290 nM
